From patent publication US5567693A, “Method for inhibiting angiogenesis, proliferation of endothelial or tumor cells and tumor growth” (American Cyanamid Company, priority 1994, dated 1996)
Counter-ions that a name gives are not always drawn.

Legend:
[1] = test system: Adult Bovine Aortic Endothelial (ABAE) cell line; test: Antiproliferative activity in ABAE cell line, PROTOCOL 1; assay type: cell-based; details: Bos taurus, PROTOCOL 1, 48 hours
Description: The antiproliferative activity of the compounds of Formula I in an Adult Bovine Aortic Endothelial (ABAE) cell line and in Human Tumor cell lines is evaluated in three similar assays that measure growth inhibition. The assays are identified as follows: PROTOCOL 1,2,and 3 are described in greater detail hereinbelow. In general, according to PROTOCOLS 1 and 2, the target ABAE and/or Human Tumor cells are exposed to the compounds of Formula I for 48 hours. PROTOCOL 3 exposes ABAE cells to the compounds for 4 days. A detailed description of the protocols is as follows: PROTOCOL 1 Antiproliferative Activity in Human Tumor and Adult Bovine Aortic Endothelial Cell Lines (ABAE) The antiproliferative activity of the compounds of Formula I of the present invention is evaluated in a panel comprised of human tumor cell lines and an adult bovine aortic endothelial cell line (ABAE). The human tumor cell lines are from All cell lines are maintained in log phase in RPMI 1640 media, supplemented with 5% fetal calf serum, penicillin/streptomycin and 2 mM L-glutamine. Cultures are renewed after 20 passages with cells from a fresh stock of batch-frozen early passage cells. Cell lines are routinely checked for mycoplasma contamination (Genprobe). In a laminar flow hood, cells (1-5×10^4) are plated into 96-well microtiter plates in a volume of 0.1 ml/well with a bulk microtiter dispenser (Denley). […] At this concentration, dimethylsulfoxide has no effect on cell growth. Compounds are added using a Tomtec dispenser which simultaneously dispenses from one 96-well plate, containing the drug dilutions, to the plates containing the cells. After two days of continuous drug exposure, 50% cold trichloroacetic acid (TCA) is added to 10% final concentration to fix the cells, and after 60 minutes at 4° C., the TCA is aspirated and the plates are washed 5 times with deionized water using a microtiter plate washer. The number of cells on the plate are quantitated using a protein dye-binding assay (Monks et al., 1991). A 0.4% solution of the dye, sulforhodamine B, in […] is added to the plates, and the plates are washed 5 times with 1% […] using the automatic plate washed. The bound stain is solubilized with 0.1 ml of 10 mM Tris base. The optical densities are read from an automatic spectrophotometric plate reader (Dynatech) directly to a main frame computer (VAX 8600). Positive controls, that include standard chemotherapeutic drugs (i.e., Adriamycin, Cisplatin, etc.), are included in every experiment. Background optical density measurements (complete media-cells, and complete media+drug-cells) are automatically subtracted from the appropriate control and test wells. Mean values and standard errors are determined from duplicate wells. A measure is also made of the optical density at time when the drugs are added. The number of cells after treatment (P), as % of control, is calculated for every concentration of drug, as follows: [formula] wherein: T is optical density measurement for treated cells after 48 hours; C is optical density measurement for untreated cells after 48 hours; Co is optical density measurement for cells at the time of drug addition. IC50 of growth inhibition is calculated from the sets of P values using the RS-1 data package (BBN Software). Table 1 presents the results depicting the antiproliferative activity of the compounds of Formula I against an Adult Bovine Aortic Endothelial cell line (ABAE), as evaluated by PROTOCOL 1 and 2. The results are presented in terms of IC50 and are as follows.

[2] = test system: Adult Bovine Aortic Endothelial (ABAE) cell line; test: Antiproliferative activity in ABAE cell line, PROTOCOL 3 (4 day assay); assay type: cell-based
Description: The antiproliferative activity of the compounds of Formula I in an Adult Bovine Aortic Endothelial (ABAE) cell line and in Human Tumor cell lines is evaluated in three similar assays that measure growth inhibition. The assays are identified as follows:
PROTOCOL 1,2,and 3 are described in greater detail hereinbelow. In general, according to PROTOCOLS 1 and 2, the target ABAE and/or Human Tumor cells are exposed to the compounds of Formula I for 48 hours. PROTOCOL 3 exposes ABAE cells to the compounds for 4 days. A detailed description of the protocols is as follows:
Antiproliferative Activity in Adult Bovine Aortic Endothelial (ABAE) Cell Line
ABAE cells are grown in DMEMmedia (Mediatech, Washington, D.C.) supplemented with 10% calf serum (Hyclone). ABAE cells are plated in 24-well dishes at 8,000 cells/well, followed by the addition of increasing concentrations of 7-(hydrogen or di(C1 -C4)alkylamino)-8-halogen-9-(substituted)-6-demethyl-6-deoxytetracycline. After four days, the cells are detached and counted. […] The growth inhibition (I) as % of control is calculated as follows: [formula] wherein: Nc is the number of cells in untreated wells;
Nt is the number of cells in treated wells;
No is the number of plated cells.
IC50 of growth inhibition is determined from the sets of I values plotted by Kaleidograph software (Abelbeck Software).
In addition FIG. 1, presents the dose response curve for the compound of Example 10 for the above ABAE cell line obtained by using PROTOCOL 3.

SMILES | IC50 [1] [µg/mL] | activity upon incubation with cells ([2]; 4 day assay (PROTOCOL 3)) | IC50 ([2]; Bos taurus, 96 h, PROTOCOL 3, 4 day assay, read-out: inhibits 50% of cell growth) [µg/mL]
CN(C)CC(=O)Nc1c(Cl)cc2c(c1O)C(=O)C1=C(O)[C@]3(O)C(=O)C(C(N)=O)=C(O)[C@@H](N(C)C)C3CC1C2 (stereo partly drawn) [Example 3, [4S-(45, 12aα)]-8-Chloro-4-(dimethylamino)-9[[(dimethylamino)acetyl]amino]-1,4,4a,5,5a,6,11,12a-octahydro-3,10,12,12a-tetrahydroxy-1,11-dioxo-2-naphthacenecarboxamide disulfate] | 2.2 | – | –
CCCCNCC(=O)Nc1c(Cl)cc2c(c1O)C(=O)C1=C(O)[C@]3(O)C(=O)C(C(N)=O)=C(O)[C@@H](N(C)C)C3CC1C2 (stereo partly drawn) [Example 4, [4S-(4α, 12aα)]-9-[[(Butylamino)acetyl]amino]-8-chloro-4-(dimethylamino) -1,4,4a,5,5a,6,11,12a-octahydro-3,10,12,12a-tetrahydroxy-1,11-dioxo-2-naphthacenecarboxamide dihydrochloride] | 2.3 | – | –
CCCNCC(=O)Nc1c(Cl)cc2c(c1O)C(=O)C1=C(O)[C@]3(O)C(=O)C(C(N)=O)=C(O)[C@@H](N(C)C)C3CC1C2 (stereo partly drawn) [Example 5, [4S-(4α, 12aα)]-8-Chloro-4-(dimethylamino)-1,4,4a,5,5a, 6,11,12a-octahydro-3,10,12,12a-tetrahydroxy-1,11-dioxo-9-[[(propylamino)acetyl]amino]-2-naphthacenecarboxamide dihydrochloride] | 2 | – | –
CCCCCNCC(=O)Nc1c(Cl)cc2c(c1O)C(=O)C1=C(O)[C@]3(O)C(=O)C(C(N)=O)=C(O)[C@@H](N(C)C)C3CC1C2 (stereo partly drawn) [Example 6, [4S-(4α, 12aα)]-8-Chloro-4-(dimethylamino)-1,4,4a,5,5a,6,11,12a-octahydro-3,10,12,12a-tetrahydroxy-1,11-dioxo-9-[[(pentylamino)acetyl]amino]-2-naphthacenecarboxamide dihydrochloride] | 0.6 | – | –
CNCC(=O)Nc1c(Cl)cc2c(c1O)C(=O)C1=C(O)[C@]3(O)C(=O)C(C(N)=O)=C(O)[C@@H](N(C)C)C3CC1C2 (stereo partly drawn) [Example 7, [4S-(4α, 12aα)]-8-Chloro-4-(dimethylamino)-1,4,4a,5,5a,6,11,12a-octahydro-3,10,12,12a-tetrahydroxy-1,11-dioxo-9-[[(methylamino)acetyl]amino]-2-naphthacenecarboxamide dihydrochloride] | 3.3 | – | –
CN(C)[C@@H]1C(O)=C(C(N)=O)C(=O)[C@@]2(O)C(O)=C3C(=O)c4c(cc(Cl)c(NC(=O)CNCC5CC5)c4O)CC3CC12 (stereo partly drawn) [Example 8, [4S-(4α,12aα)]-8-Chloro-9-[[(cyclopropylmethylamino)-acetyl]amino]4-(dimethylamino)-1,4,4a,5,5a,6,11,12a-octahydro-3,10,12,12a-tetrahydroxy-1,11-dioxo-2-naphthacenecarboxamide dihydrochloride] | 2 | – | –
CN(C)[C@@H]1C(O)=C(C(N)=O)C(=O)[C@@]2(O)C(O)=C3C(=O)c4c(cc(Cl)c(NC(=O)CN5CCCC5)c4O)CC3CC12 (stereo partly drawn) [Example 9, [7S-(7α,10aα)]-N-[9-(Aminocarbonyl)-3-chloro-7-(dimethylamino)-5,5a,6,6a,7,10,10a,12-octahydro-1,8,10a,11-tetrahydroxy-10,12-dioxo-2-naphthacenyl]-1-pyrrolidineacetamide dihydrochloride] | 2.5 | – | –
CN(C)[C@@H]1C(O)=C(C(N)=O)C(=O)[C@@]2(O)C(O)=C3C(=O)c4c(cc(Cl)c(NC(=O)CN5CCCCC5)c4O)CC3CC12 (stereo partly drawn) [Example 10, 7S-(7α,10aα)]-N-[9-(Aminocarbonyl)-3-chloro-7-(dimethylamino)-5,5a,6,6a,7,10,10a,12-octahydro-1,8,10a,11-tetrahydroxy-10,12-dioxo-2-naphthacenyl]-1-piperidineacetamide dihydrochloride] | 0.7 | retains its activity | ~0.4
CN(C)c1c(Cl)cc(O)c2c1CC1CC3[C@H](N(C)C)C(O)=C(C(N)=O)C(=O)[C@@]3(O)C(O)=C1C2=O (stereo partly drawn) [Example 11, [4S-(4α,12aα)]-8-Chloro-4,7-bis(dimethylamino)-1,4,4a,5,5a,6,11,12a-octahydro-3,10,12,12a-tetrahydroxy-1,11-dioxo-2-naphthacenecarboxamide sulfate] | 3 | – | –
